In ChEMBL document CHEMBL5356997, “Maydistacins A-G, Terpestacin-type Sesterterpenoids with Anti-inflammatory Activity from the Phytopathogenic Fungus Bipolaris maydis” (J Nat Prod, 2024):
pIC50: −log10 of the molar value.

Test system: not listed separately
Experiment: Cytotoxicity against mouse RAW264.7 cells assessed as cell survival at 50 uM by MTT assay relative to control
Type: toxicity, cell-based
Settings: read-out: Activity

| SMILES | viability at 50 µM [%] |
| --- | --- |
| CC(=O)OC[C@@H](C)C1=C(O)C(=O)[C@@]2(C)C/C=C(\C)CC[C@@H]3O[C@@]3(C)CC[C@H](O)/C(C)=C/C[C@H]12 | > 90 |
| C/C1=C\C[C@]2(C)C(=O)C(O)=C([C@H](C)CO)[C@H]2C[C@H]2O[C@]2(C)[C@@H](O)CC/C(C)=C/CC1 | > 90 |
| C/C1=C\C[C@]2(C)C(=O)C(O)=C([C@H](C)CO)[C@H]2C/C=C(\C)C(=O)CC/C(C)=C/CC1 | > 90 |
| C/C1=C\C[C@]2(C)C(=O)C(O)=C([C@H](C)CO)[C@H]2C/C=C(\C)[C@@H](O)CC/C(C)=C/CC1 [TERPESTACIN] | > 90 |
| CC(=O)OC[C@@H](C)C1=C(O)C(=O)[C@@]2(C)C/C=C(\C)CC/C=C(\C)CC[C@H](O)/C(C)=C/C[C@H]12 [FUSAPROLIFERIN] | > 90 |
| CC(=O)O[C@H]1CC/C(C)=C/CC/C(C)=C/C[C@]2(C)C(=O)C(O)=C([C@H](C)CO)[C@H]2C/C=C/1C | > 90 |
| CC(=O)OC[C@@H](C)C1=C(O)C(=O)[C@@]2(C)C/C=C(\C)C/C=C/[C@](C)(O)CC[C@@H](O)/C(C)=C/C[C@H]12 | > 90 |
| C/C1=C\C[C@]2(C)C(=O)C(O)=C([C@H](C)CO)[C@H]2C/C=C(\C)[C@@H]2CC[C@](C)(/C=C/C1)O2 | > 90 |
| CC(=O)OC[C@@H](C)C1=C(O)C(=O)[C@@]2(C)C/C=C(\C)CC/C=C(\C)CC[C@H](O)[C@@]3(C)O[C@@H]3C[C@H]12 | > 90 |

Test system: RAW264.7
Experiment: Antiinflammatory activity against LPS-stimulated mouse RAW264.7 cells assessed as inhibition of NO production preincubated with compound for 2 hrs followed by LPS stimulation and measured after 12 hrs by Griess reagent based microplate reader analysis
Type: functional, cell-based
Settings: not given

| pIC50 | SMILES |
| --- | --- |
| 5.17 | C[C@@H]1C[C@H]2[C@@H]3CCC4=CC(=O)C=C[C@]4(C)[C@@]3(F)[C@@H](O)C[C@]2(C)[C@@]1(O)C(=O)CO [DEXAMETHASONE] |
| 4.72 | C/C1=C\C[C@]2(C)C(=O)C(O)=C([C@H](C)CO)[C@H]2C/C=C(\C)C(=O)CC/C(C)=C/CC1 |

Test system: RAW264.7
Experiment: Antiinflammatory activity against LPS-stimulated mouse RAW264.7 cells assessed as inhibition of NO production at 50 uM preincubated with compound for 2 hrs followed by LPS stimulation and measured after 12 hrs by Griess reagent based microplate reader analysis relative to control
Type: functional
Settings: time 14 hrs

| SMILES | inhibition at 50 µM [%] |
| --- | --- |
| CC(=O)OC[C@@H](C)C1=C(O)C(=O)[C@@]2(C)C/C=C(\C)CC[C@@H]3O[C@@]3(C)CC[C@H](O)/C(C)=C/C[C@H]12 | < 40 |
| C/C1=C\C[C@]2(C)C(=O)C(O)=C([C@H](C)CO)[C@H]2C[C@H]2O[C@]2(C)[C@@H](O)CC/C(C)=C/CC1 | < 40 |
| C/C1=C\C[C@]2(C)C(=O)C(O)=C([C@H](C)CO)[C@H]2C/C=C(\C)[C@@H](O)CC/C(C)=C/CC1 [TERPESTACIN] | < 40 |
| CC(=O)OC[C@@H](C)C1=C(O)C(=O)[C@@]2(C)C/C=C(\C)CC/C=C(\C)CC[C@H](O)/C(C)=C/C[C@H]12 [FUSAPROLIFERIN] | < 40 |
| CC(=O)O[C@H]1CC/C(C)=C/CC/C(C)=C/C[C@]2(C)C(=O)C(O)=C([C@H](C)CO)[C@H]2C/C=C/1C | < 40 |
| CC(=O)OC[C@@H](C)C1=C(O)C(=O)[C@@]2(C)C/C=C(\C)C/C=C/[C@](C)(O)CC[C@@H](O)/C(C)=C/C[C@H]12 | < 40 |
| C/C1=C\C[C@]2(C)C(=O)C(O)=C([C@H](C)CO)[C@H]2C/C=C(\C)[C@@H]2CC[C@](C)(/C=C/C1)O2 | < 40 |
| CC(=O)OC[C@@H](C)C1=C(O)C(=O)[C@@]2(C)C/C=C(\C)CC/C=C(\C)CC[C@H](O)[C@@]3(C)O[C@@H]3C[C@H]12 | < 40 |
